What all share (assay type): biochemical
Assay [1] has as its target T1, Lck (Homo sapiens, UniProt P06239).
T1 construct: Kinases are expressed as either kinase domains or full length constructs; made in house
As to the kind of experiment: Kinase inhibition assay (33P transfer), Lck. Conditions: Table 3, class symbols; read-out: Lck-1. Summed up: (§1)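 Kinase domains or full-length kinases, GST- or His-tagged and expressed in E. coli or baculovirus/High Five cells, transferred 33PO4 from ATP onto plate-bound poly(Glu,Tyr) 4:1 or poly(Arg,Ser) 3:1. After incubation, plates were washed with 0.5% phosphoric acid and counted by liquid scintillation.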

Assay [2] has as its target T2, Zap-70 (Homo sapiens, UniProt P43403).
T2 construct: Kinases are expressed as either kinase domains or full length constructs; made in house
T2 sequence (P43403 1-619): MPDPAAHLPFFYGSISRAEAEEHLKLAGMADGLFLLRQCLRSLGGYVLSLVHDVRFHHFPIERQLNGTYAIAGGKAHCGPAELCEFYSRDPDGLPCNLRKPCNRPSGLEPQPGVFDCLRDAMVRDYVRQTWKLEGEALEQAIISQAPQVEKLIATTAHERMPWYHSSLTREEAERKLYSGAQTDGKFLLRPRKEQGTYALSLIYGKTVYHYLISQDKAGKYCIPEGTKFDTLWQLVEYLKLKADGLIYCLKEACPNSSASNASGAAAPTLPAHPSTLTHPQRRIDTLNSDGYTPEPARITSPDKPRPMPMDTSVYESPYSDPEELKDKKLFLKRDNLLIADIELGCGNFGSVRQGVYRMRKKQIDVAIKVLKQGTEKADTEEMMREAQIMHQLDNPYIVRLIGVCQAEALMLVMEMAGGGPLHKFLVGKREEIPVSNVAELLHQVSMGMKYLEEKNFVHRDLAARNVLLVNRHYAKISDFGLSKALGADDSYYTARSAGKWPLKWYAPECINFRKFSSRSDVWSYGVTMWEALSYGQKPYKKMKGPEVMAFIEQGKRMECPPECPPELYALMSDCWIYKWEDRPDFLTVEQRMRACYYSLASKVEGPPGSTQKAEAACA
As to the kind of experiment: Kinase inhibition assay (33P transfer), Zap-70. The note with it: Table 3, class symbols; read-out: Zap-1. An outline of the steps: as §1

Assay [3] concerns the target T3, Itk (Homo sapiens, UniProt Q08881).
T3 construct: Kinases are expressed as either kinase domains or full length constructs; made in house
T3 sequence (Q08881 1-620): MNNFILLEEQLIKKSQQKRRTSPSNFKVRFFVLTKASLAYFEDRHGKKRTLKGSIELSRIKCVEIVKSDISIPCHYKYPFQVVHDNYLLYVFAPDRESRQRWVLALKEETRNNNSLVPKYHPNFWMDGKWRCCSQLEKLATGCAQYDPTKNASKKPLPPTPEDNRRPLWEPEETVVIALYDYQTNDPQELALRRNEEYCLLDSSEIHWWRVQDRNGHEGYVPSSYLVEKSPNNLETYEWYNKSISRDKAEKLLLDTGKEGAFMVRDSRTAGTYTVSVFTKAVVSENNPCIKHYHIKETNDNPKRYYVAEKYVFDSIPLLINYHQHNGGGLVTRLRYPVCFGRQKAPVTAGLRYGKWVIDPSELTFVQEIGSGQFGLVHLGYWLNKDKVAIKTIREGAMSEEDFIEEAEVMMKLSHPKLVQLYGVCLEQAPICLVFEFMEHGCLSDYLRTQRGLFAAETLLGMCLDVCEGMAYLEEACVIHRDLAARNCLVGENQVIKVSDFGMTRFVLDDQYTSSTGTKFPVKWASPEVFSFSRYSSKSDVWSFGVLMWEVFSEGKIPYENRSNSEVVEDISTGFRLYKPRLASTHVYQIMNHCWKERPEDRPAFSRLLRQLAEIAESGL
Nature of the assay: Kinase inhibition assay (33P transfer), Itk. The note with it: Table 3, class symbols; read-out: Itk-1. Summed up: (§2)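 Each enzyme, purified to near homogeneity by affinity chromatography, was incubated with ATP carrying 33P and a substrate polymer fixed to the plate. Unbound label was removed with dilute phosphoric acid (0.5%) before adding scintillant and counting. Potency is given as the compound level cutting label uptake by 50%.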

Assay [4] concerns the target T4, EGFR (Homo sapiens, UniProt P00533).
T4 construct: Kinases are expressed as either kinase domains or full length constructs; made in house
Nature of the assay: Kinase inhibition assay (33P transfer), EGFR. The note with it: Table 2, class symbols A-E; read-out: EGFR-1. An outline of the steps: as §2

The target in assay [5] is T5, ErbB2 (Homo sapiens, UniProt P04626).
T5 construct: Kinases are expressed as either kinase domains or full length constructs; made in house
T5 sequence (P04626 23-1255, species assumed): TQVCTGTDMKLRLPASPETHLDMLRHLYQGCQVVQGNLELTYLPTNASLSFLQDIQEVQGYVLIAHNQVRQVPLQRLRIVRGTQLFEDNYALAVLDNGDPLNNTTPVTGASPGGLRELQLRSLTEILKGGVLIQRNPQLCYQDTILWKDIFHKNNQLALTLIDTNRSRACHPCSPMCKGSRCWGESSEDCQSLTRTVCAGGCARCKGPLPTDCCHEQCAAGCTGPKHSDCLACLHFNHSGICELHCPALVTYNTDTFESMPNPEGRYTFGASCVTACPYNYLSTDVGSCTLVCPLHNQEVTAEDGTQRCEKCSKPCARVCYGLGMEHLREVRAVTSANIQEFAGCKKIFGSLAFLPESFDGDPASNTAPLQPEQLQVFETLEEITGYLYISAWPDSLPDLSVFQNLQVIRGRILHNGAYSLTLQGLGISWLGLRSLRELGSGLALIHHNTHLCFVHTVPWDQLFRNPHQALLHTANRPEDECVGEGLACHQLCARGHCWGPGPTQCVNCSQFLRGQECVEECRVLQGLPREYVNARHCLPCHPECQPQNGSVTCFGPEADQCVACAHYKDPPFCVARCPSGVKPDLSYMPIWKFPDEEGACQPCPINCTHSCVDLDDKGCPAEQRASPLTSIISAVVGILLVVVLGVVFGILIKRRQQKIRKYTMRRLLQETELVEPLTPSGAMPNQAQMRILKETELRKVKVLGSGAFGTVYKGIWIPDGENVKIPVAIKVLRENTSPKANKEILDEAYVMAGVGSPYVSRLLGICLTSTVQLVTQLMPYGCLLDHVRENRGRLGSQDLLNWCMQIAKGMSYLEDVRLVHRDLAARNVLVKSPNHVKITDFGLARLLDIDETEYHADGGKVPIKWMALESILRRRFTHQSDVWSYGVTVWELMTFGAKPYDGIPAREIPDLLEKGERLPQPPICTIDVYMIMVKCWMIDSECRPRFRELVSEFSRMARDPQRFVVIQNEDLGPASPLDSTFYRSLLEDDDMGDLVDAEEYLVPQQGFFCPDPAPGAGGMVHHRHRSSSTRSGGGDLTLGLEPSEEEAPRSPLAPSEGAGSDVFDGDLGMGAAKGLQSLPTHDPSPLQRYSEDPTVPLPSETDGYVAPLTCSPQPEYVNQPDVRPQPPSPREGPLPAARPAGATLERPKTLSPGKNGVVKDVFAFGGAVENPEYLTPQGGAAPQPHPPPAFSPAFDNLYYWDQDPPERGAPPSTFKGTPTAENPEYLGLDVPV
As to the kind of experiment: Kinase inhibition assay (33P transfer), ErbB2. Conditions: read-out: ErbB2-2. Summed up: as §2

The target in assay [6] is T6, Kdr (Homo sapiens, UniProt P35968).
T6 construct: Kinases are expressed as either kinase domains or full length constructs; made in house
Nature of the assay: Kinase inhibition assay (33P transfer), Kdr. The note with it: Table 3, class symbols; read-out: KDR-1. Summed up: as §1

For assay [7], the target named is T7, c-Met (Homo sapiens, UniProt P08581).
T7 construct: Kinases are expressed as either kinase domains or full length constructs; made in house
Nature of the assay: Kinase inhibition assay (33P transfer), c-Met. The note with it: Table 2, class symbols A-E; read-out: Met-1. Summed up:
as §2

The target in assay [8] is T8, AKT (Homo sapiens, UniProt Q9Y243).
T8 construct: Kinases are expressed as either kinase domains or full length constructs; made in house
T8 sequence (Q9Y243 whole entry, the tested form may be a part): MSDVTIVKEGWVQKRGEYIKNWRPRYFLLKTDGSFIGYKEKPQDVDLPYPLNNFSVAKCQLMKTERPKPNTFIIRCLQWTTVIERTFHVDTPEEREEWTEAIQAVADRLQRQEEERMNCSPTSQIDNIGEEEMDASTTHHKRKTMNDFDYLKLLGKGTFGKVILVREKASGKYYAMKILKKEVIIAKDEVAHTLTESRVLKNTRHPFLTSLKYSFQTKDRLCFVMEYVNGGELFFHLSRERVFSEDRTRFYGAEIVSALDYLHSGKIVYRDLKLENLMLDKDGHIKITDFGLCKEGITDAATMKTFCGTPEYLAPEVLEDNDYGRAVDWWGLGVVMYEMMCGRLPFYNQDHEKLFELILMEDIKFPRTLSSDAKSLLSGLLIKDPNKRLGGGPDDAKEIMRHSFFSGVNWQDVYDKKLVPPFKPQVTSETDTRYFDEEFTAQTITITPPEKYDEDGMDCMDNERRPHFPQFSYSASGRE
As to the kind of experiment: Kinase inhibition assay (33P transfer), AKT. The note with it: Table 2, class symbols A-E; read-out: AKT3-1. An outline of the steps:
as §1

The target of assay [9] is T9, IGFR-1 (Homo sapiens, UniProt P08069).
T9 construct: Kinases are expressed as either kinase domains or full length constructs; made in house
T9 sequence (P08069 31-1367): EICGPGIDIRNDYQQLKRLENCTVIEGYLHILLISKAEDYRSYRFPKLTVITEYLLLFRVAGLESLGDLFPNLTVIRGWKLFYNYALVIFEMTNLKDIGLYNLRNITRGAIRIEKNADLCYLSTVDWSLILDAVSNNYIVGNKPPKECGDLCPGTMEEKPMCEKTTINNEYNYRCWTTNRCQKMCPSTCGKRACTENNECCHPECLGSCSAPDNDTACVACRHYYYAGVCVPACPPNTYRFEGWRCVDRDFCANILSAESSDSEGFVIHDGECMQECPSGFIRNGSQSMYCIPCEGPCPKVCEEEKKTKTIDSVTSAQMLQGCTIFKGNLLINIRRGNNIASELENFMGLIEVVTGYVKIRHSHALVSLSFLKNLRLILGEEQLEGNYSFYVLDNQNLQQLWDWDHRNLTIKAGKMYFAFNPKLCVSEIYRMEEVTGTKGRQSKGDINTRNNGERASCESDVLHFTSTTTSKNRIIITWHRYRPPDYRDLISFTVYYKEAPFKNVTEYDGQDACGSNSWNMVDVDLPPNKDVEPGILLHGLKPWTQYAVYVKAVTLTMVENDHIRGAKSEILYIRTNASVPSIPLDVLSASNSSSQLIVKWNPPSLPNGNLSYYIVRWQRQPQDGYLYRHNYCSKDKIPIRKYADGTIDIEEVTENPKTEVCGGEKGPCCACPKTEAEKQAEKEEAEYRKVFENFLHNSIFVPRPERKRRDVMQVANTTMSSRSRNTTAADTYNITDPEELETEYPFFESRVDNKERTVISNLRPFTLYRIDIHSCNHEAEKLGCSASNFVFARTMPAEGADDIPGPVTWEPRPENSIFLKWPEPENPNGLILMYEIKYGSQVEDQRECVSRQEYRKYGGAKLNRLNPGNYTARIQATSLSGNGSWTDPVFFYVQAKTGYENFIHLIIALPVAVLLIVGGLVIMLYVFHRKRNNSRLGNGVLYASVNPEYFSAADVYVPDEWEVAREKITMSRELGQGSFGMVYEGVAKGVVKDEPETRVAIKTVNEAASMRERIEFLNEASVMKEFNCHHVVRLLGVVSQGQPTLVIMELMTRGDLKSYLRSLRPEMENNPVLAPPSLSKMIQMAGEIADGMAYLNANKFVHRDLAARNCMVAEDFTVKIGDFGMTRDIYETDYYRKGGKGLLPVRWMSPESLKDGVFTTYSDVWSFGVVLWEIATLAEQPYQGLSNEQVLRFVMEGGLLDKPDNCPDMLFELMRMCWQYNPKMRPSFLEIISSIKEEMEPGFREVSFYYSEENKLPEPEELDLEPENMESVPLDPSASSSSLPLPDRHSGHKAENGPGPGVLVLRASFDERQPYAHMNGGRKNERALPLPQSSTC
Nature of the assay: Kinase inhibition assay (33P transfer), IGFR-1. Conditions: Table 2, class symbols A-E.

The target in assay [10] is T10, PDGFRB (Homo sapiens, UniProt P09619).
T10 construct: Kinases are expressed as either kinase domains or full length constructs; made in house
T10 sequence (P09619 33-1106, species assumed): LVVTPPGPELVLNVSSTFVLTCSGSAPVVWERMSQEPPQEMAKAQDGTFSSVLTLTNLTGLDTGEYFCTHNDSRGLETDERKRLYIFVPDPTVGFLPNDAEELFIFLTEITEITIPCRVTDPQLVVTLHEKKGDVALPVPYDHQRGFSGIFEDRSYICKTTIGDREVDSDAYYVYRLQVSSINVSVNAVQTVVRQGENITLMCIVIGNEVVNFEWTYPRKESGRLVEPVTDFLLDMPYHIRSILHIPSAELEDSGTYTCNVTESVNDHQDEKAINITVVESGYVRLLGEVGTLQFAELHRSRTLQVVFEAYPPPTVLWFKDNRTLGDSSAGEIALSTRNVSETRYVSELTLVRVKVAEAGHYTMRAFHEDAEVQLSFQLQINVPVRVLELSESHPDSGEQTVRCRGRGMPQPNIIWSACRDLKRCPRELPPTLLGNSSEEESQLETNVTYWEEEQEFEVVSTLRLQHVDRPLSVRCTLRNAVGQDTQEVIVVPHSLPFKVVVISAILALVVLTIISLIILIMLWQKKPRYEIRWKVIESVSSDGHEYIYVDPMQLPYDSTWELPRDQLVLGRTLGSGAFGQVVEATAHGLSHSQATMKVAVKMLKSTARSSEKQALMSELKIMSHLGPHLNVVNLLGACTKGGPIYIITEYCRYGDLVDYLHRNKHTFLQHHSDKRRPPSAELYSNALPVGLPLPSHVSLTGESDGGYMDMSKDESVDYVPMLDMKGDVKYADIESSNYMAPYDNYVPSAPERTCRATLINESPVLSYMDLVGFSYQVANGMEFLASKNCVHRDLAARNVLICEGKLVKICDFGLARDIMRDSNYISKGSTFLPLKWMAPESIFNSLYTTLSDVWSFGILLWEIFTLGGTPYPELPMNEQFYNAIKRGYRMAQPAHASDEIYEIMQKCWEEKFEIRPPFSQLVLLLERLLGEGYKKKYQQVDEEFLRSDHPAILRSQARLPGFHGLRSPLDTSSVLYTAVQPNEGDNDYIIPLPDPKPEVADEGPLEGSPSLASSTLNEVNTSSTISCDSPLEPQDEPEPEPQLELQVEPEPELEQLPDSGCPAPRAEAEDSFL
Nature of the assay: Kinase inhibition assay (33P transfer), PDGFRB. Conditions: read-out: PDGFRB-1.

This passage reports IC50 results from patent US7074789B2, “Kinase inhibitors” (Amgen Inc., priority 1999, dated 2006).

Molecules are shown by their SMILES. Several values for one entry are separate records, joined by “and”; a condition that tells them apart may be missing. Equal values may be shown once.

T1 sequence (P06239 whole entry, species assumed, the tested form may be a part): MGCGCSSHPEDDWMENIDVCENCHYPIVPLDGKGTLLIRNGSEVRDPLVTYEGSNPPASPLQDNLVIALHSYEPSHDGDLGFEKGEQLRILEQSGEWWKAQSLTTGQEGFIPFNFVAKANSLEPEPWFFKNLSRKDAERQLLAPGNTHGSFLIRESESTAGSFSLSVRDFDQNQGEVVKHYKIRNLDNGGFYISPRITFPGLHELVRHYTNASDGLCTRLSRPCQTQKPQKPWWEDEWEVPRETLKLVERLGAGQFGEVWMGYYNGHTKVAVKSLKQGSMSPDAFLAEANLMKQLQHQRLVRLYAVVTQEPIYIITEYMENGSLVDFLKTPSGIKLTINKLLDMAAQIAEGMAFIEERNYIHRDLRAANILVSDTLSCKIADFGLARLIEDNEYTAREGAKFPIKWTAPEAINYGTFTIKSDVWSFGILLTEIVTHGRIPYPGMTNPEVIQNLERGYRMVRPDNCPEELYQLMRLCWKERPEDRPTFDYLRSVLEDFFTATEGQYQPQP

Consider `c1ccc(CNc2ncccc2-c2ncnc(Nc3cccc(Cn4ccnn4)c3)n2)cc1` [Compound 1101], for which the IC50 in assay [1] is 5.51 to 8.04 µM; in assay [2], greater than 10.3 µM; in assay [3], 5.51 to 8.04 µM; in assay [4], 0.918 to 5.51 µM; in assay [5] it was greater than 10.3 µM; in assay [6], less than 0.918 µM. The IC50 in [7] was 5.51 to 8.04 µM; in assay [8] it was greater than 10.3 µM; in [9] it was greater than 10.3 µM; in assay [10], less than 0.918 µM.
Consider `Fc1ccc(CNc2ncccc2-c2ncnc(Nc3cccc(Cn4ccnn4)c3)n2)cc1` [Compound 1102], for which the IC50 in [1] was greater than 9.92 µM; in [2], 7.72 to 9.92 µM; in [3] it was greater than 9.92 µM; in assay [4], 5.29 to 7.72 µM; in [5], greater than 9.92 µM; in assay [6], less than 0.882 µM. In addition, the IC50 was greater than 9.92 µM in [7], greater than 9.92 µM in assay [8], greater than 9.92 µM in [9] and less than 0.882 µM in assay [10].
As to `OCc1cccc(Nc2ncnc(-c3cccnc3NCc3ccccc3)n2)c1` [Compound 1103], the IC50 was 1.04 to 6.24 µM in assay [1]; 9.1 to 11.7 µM in [2]; greater than 11.7 µM in assay [3]; 1.04 to 6.24 µM in [4]; 9.1 to 11.7 µM in assay [5]; less than 1.04 µM in assay [6]. Besides, the IC50 is greater than 11.7 µM in [7], 9.1 to 11.7 µM in assay [8], greater than 11.7 µM in [9] and less than 1.04 µM in assay [10].
Consider `OCc1cccc(Nc2ncnc(-c3cccnc3NCc3ccc(F)cc3)n2)c1` [Compound 1104], for which the IC50 is > 11.2 µM and 0.994 to 5.96 µM in assay [1]; greater than 11.2 µM in assay [2]; > 11.2 µM and 8.7 to 11.2 µM in assay [3]; > 11.2 µM and 0.994 to 5.96 µM in assay [4]; > 11.2 µM and 0.994 to 5.96 µM in assay [5]; less than 0.994 µM in [6]. In addition, the IC50 in [7] was greater than 11.2 µM; in assay [8], 8.7 to 11.2 µM and > 11.2 µM; in assay [9], > 11.2 µM and 8.7 to 11.2 µM; in [10] it was less than 0.994 µM.
As for `c1ccc(CNc2ncccc2-c2ncnc(Nc3ccc(N4CCOCC4)cc3)n2)cc1` [Compound 1105], the IC50 in assay [1] was greater than 10.2 µM; in assay [2] it was greater than 10.2 µM; in [3] it was greater than 10.2 µM; in assay [4], greater than 10.2 µM; in assay [5], greater than 10.2 µM; in assay [6] it was less than 0.91 µM. In addition, the IC50 in [7] was greater than 10.2 µM; in [8], greater than 10.2 µM; in assay [9] it was greater than 10.2 µM; in [10], less than 0.91 µM.
Consider `Fc1ccc(CNc2ncccc2-c2ncnc(Nc3ccc(N4CCOCC4)cc3)n2)cc1` [Compound 1106], for which the IC50 in assay [1] was greater than 9.84 µM; in assay [2], greater than 9.84 µM; in [3], greater than 9.84 µM; in assay [4], greater than 9.84 µM; in assay [5] it was greater than 9.84 µM; in assay [6] it was 0.874 to 5.25 µM. The IC50 in assay [7] was greater than 9.84 µM; in [8], greater than 9.84 µM; in assay [9], greater than 9.84 µM; in assay [10] it was 0.874 to 5.25 µM.
Consider `Fc1ccc(CNc2ncccc2-c2ncnc(Nc3ccc4[nH]ncc4c3)n2)cc1` [Compound 1108], for which the IC50 in assay [1] is 5.82 to 8.49 µM; in assay [2], 5.82 to 8.49 µM; in assay [3], 5.82 to 8.49 µM; in assay [4], 0.97 to 5.82 µM; in [5], greater than 10.9 µM; in assay [6] it was less than 0.97 µM. For the same compound, the IC50 in assay [7] was greater than 10.9 µM; in assay [8], 0.97 to 5.82 µM; in assay [9] it was 5.82 to 8.49 µM; in assay [10], less than 0.97 µM.
Take `Fc1ccc(CNc2ncccc2-c2ncnc(Nc3cccc(Cn4ccnc4)c3)n2)cc1` [Compound 1109]: the IC50 is 0.884 to 5.3 µM in assay [1]; 5.3 to 7.73 µM in [2]; less than 0.884 µM in assay [3]; 0.884 to 5.3 µM in assay [4]; 0.884 to 5.3 µM in assay [5]; less than 0.884 µM in assay [6]. The IC50 is 5.3 to 7.73 µM in [7], greater than 9.94 µM in [8], 0.884 to 5.3 µM in [9] and less than 0.884 µM in [10].
With `Cc1ccc(-c2cc(Nc3ncnc(Nc4cc(C)ccc4C)n3)[nH]n2)cc1` [Compound 1125], the IC50 in assay [1] is less than 1.08 µM; in [2], greater than 12.1 µM; in [3], less than 1.08 µM; in assay [4], less than 1.08 µM; in assay [5], 1.08 to 6.46 µM; in assay [6], 1.08 to 6.46 µM. The IC50 in [7] is 1.08 to 6.46 µM; in assay [8], greater than 12.1 µM; in assay [9], less than 1.08 µM; in assay [10], 1.08 to 6.46 µM.
Consider `COc1ccc(Nc2ncnc(Nc3cc(-c4ccc(C)cc4)n[nH]3)n2)c(C)c1` [Compound 1126], for which the IC50 in assay [1] is less than 1.03 µM; in [2], greater than 11.6 µM; in [3], 1.03 to 6.19 µM; in [4], 1.03 to 6.19 µM; in assay [5], 1.03 to 6.19 µM; in assay [6] it was 6.19 to 9.03 µM. For the same compound, the IC50 in [7] was 1.03 to 6.19 µM; in assay [8] it was greater than 11.6 µM; in assay [9], less than 1.03 µM; in assay [10], 1.03 to 6.19 µM.
Take `COc1cc(C)c(Nc2ncnc(Nc3cc(-c4ccc(C)cc4)n[nH]3)n2)cc1OC` [Compound 1127]: the IC50 in assay [1], in assay [2], in assay [3], in assay [4], in [5] and in assay [6] was greater than 10.8 µM in each case. In addition, the IC50 in assay [7] is less than 0.958 µM; in [8], greater than 10.8 µM; in assay [9], less than 0.958 µM; in assay [10] it was greater than 10.8 µM.
In the case of `COc1cc(C)c(Nc2ncnc(Nc3cc(-c4ccc(Cl)cc4)n[nH]3)n2)cc1OC` [Compound 1128], the IC50 in [1] was 0.913 to 5.48 µM; in [2], greater than 10.3 µM; in assay [3], 0.913 to 5.48 µM; in assay [4], 7.99 to 10.3 µM; in [5], 0.913 to 5.48 µM; in [6], 0.913 to 5.48 µM. In addition, the IC50 in assay [7] is 0.913 to 5.48 µM; in assay [8], greater than 10.3 µM; in assay [9], less than 0.913 µM; in [10], greater than 10.3 µM.
